Target: T1, Recombinant (1-346) HPK1 (h) (Homo sapiens, UniProt Q92918)
T1 construct: Recombinant (1-346) HPK1 (h) is incubated with 8 mM MOPS pH 7.0
T1 sequence (Q92918 1-346): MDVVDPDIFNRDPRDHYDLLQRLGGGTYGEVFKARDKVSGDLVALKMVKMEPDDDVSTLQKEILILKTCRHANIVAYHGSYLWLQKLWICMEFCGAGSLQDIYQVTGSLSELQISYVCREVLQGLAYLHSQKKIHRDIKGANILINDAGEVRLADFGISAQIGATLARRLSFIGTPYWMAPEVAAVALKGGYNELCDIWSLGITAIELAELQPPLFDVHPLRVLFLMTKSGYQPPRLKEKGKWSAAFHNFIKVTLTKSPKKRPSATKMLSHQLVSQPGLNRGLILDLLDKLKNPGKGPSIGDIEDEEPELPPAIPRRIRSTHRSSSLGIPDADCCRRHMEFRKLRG
Test: HPK1 human STE kinase enzymatic radiometric assay
Type: biochemical
Conditions: read-out: HPK1 IC50 nM Range
Protocol: (a) HPK1 Human STE Kinase Enzymatic Radiometric Assay
A stock solution of 10 mM of test compound is prepared in DMSO. The compound plate was prepared by 3-fold and 9-point serial dilutions. Recombinant (1-346) HPK1 (h) is incubated with 8 mM MOPS pH 7.0, 0.2 mM EDTA, 0.33 mg/mL myelin basic protein, 10 mM MgAcetate and [gamma-33P]-ATP (specific activity and concentration as required). The reaction is initiated by the addition of the Mg/ATP mix. After incubation for 40 minutes at RT, the reaction is stopped by the addition of phosphoric acid to a concentration of 0.5%, 10 μL of the reaction is then spotted onto a P30 filtermat and washed four times for 4 minutes in 0.425% phosphoric acid and once in methanol prior to drying and scintillation counting. For more details of kinase assay protocols, see: Gao, Y. et. al.; Biochem J.451 (2): 313-328, 2013.

SMILES | IC50
CCN(C)Cc1cc(-c2nc(-c3ccc4c(c3)CCNC4=O)c(N)nc2F)ccc1C1CCOCC1 [Example I-163, 6-(3-amino-6-(3-((ethyl(methyl)amino)methyl)-4-(tetrahydro-2H-pyran-4-yl)phenyl)-5-fluoropyrazin-2-yl)-3,4-dihydroisoquinolin-1(2H)-one] | 0.1 to 10 nM
C[C@@H]1CCCN1Cc1cc(-c2nc(-c3cc(F)c4c(c3)CCNC4=O)c(N)nc2F)ccc1C1CCOCC1 [Example I-218, (R)-6-(3-amino-5-fluoro-6-(3-((2-methylpyrrolidin-1-yl)methyl)-4-(tetrahydro-2H-pyran-4-yl)phenyl)pyrazin-2-yl)-8-fluoro-3,4-dihydroisoquinolin-1(2H)-one] | 11 to 100 nM
Cc1cc2cc(-c3nc(-c4ccc(N5CCOCC5)c(CN(C)C)c4)c(F)nc3N)c(F)cc2c(=O)[nH]1 [Example I-183, 6-(3-amino-6-(3-((dimethylamino)methyl)-4-morpholinophenyl)-5-fluoropyrazin-2-yl)-7-fluoro-3-methylisoquinolin-1(2H)-one] | 0.1 to 10 nM
Nc1nc(F)c(-c2ccc(N3CCOCC3)c(CN3CCCCC3)c2)nc1-c1ccc2c(c1)CCNC2=O [Example I-185, 6-(3-amino-5-fluoro-6-(4-morpholino-3-(piperidin-1-ylmethyl)phenyl)pyrazin-2-yl)-3,4-dihydroisoquinolin-1(2H)-one] | 11 to 100 nM
CCN(C)Cc1cc(-c2nc(-c3ccc4c(c3)C(F)(F)CNC4=O)c(N)nc2F)ccc1C1CCOCC1 [Example I-224, 6-(3-amino-6-(3-((ethyl(methyl)amino)methyl)-4-(tetrahydro-2H-pyran-4-yl)phenyl)-5-fluoropyrazin-2-yl)-4,4-difluoro-3,4-dihydroisoquinolin-1(2H)-one] | 0.1 to 10 nM
CCN(C)Cc1cc(-c2nc(-c3ccc4c(=O)[nH]cc(F)c4c3)c(N)nc2F)ccc1OC [Example I-300, 6-(3-amino-6-(3-((ethyl(methyl)amino)methyl)-4-methoxyphenyl)-5-fluoropyrazin-2-yl)-4-fluoroisoquinolin-1(2H)-one] | 11 to 100 nM
Cc1[nH]c(=O)c2ccc(-c3nc(-c4ccc(C5CCOCC5)c(CN(C)C)c4)c(F)nc3N)cc2c1Cl [Example I-125, 6-(3-amino-6-(3-((dimethylamino)methyl)-4-(tetrahydro-2H-pyran-4-yl)phenyl)-5-fluoropyrazin-2-yl)-4-chloro-3-methylisoquinolin-1(2H)-one] | 0.1 to 10 nM
COc1c[nH]c(=O)c2ccc(-c3nc(-c4ccc(N5CCN(C(C)C)CC5)cc4)c(F)nc3N)cc12 [Example I-119, 6-(3-amino-5-fluoro-6-(4-(4-isopropylpiperazin-1-yl)phenyl)pyrazin-2-yl)-4-methoxyisoquinolin-1(2H)-one] | 11 to 100 nM
CO[C@H]1CCN(Cc2cc(-c3nc(-c4ccc5c(c4)CCNC5=O)c(N)nc3F)ccc2N2CCOCC2)C1 [Example I-156, (S)-6-(3-amino-5-fluoro-6-(3-((3-methoxypyrrolidin-1-yl)methyl)-4-morpholinophenyl)pyrazin-2-yl)-3,4-dihydroisoquinolin-1(2H)-one] | 0.1 to 10 nM
Nc1nc(F)c(-c2ccc(N3CCN(CCCC(F)F)CC3)cc2)nc1-c1ccc2c(=O)[nH]cc(F)c2c1 [Example I-136, 6-(3-amino-6-(4-(4-(4,4-difluorobutyl)piperazin-1-yl)phenyl)-5-fluoropyrazin-2-yl)-4-fluoroisoquinolin-1(2H)-one] | 0.1 to 10 nM
Nc1nc(F)c(-c2ccc(N3CCOCC3)c(CN3CCCCC3)c2)nc1-c1cc(F)c2c(c1)CCNC2=O [Example I-187, 6-(3-amino-5-fluoro-6-(4-morpholino-3-(piperidin-1-ylmethyl)phenyl)pyrazin-2-yl)-8-fluoro-3,4-dihydroisoquinolin-1(2H)-one] | 11 to 100 nM
CN(C)Cc1cc(-c2nc(-c3ccc4c(c3)CCNC4=O)c(N)nc2F)ccc1F [Example I-272, 6-(3-amino-6-(3-((dimethylamino)methyl)-4-fluorophenyl)-5-fluoropyrazin-2-yl)-3,4-dihydroisoquinolin-1(2H)-one] | 11 to 100 nM
Cc1[nH]c(=O)c2c(F)cc(-c3nc(-c4ccc(N5CCOCC5)c(CN(C)C)c4)c(F)nc3N)cc2c1Cl [Example I-109, 6-(3-amino-6-(3-((dimethylamino)methyl)-4-morpholinophenyl)-5-fluoropyrazin-2-yl)-4-chloro-8-fluoro-3-methylisoquinolin-1(2H)-one] | 0.1 to 10 nM
C[C@H]1CCCN1Cc1cc(-c2nc(-c3ccc4c(=O)[nH]cc(Cl)c4c3)c(N)nc2F)ccc1C1CCOCC1 [Example I-229, (S)-6-(3-amino-5-fluoro-6-(3-((2-methylpyrrolidin-1-yl)methyl)-4-(tetrahydro-2H-pyran-4-yl)phenyl)pyrazin-2-yl)-4-chloroisoquinolin-1(2H)-one] | 11 to 100 nM
CN(C)Cc1cc(-c2nc(-c3ccc4c(c3)CCNC4=O)c(N)nc2F)c(F)cc1N1CCOCC1 [Example I-258, 6-(3-amino-6-(5-((dimethylamino)methyl)-2-fluoro-4-morpholinophenyl)-5-fluoropyrazin-2-yl)-3,4-dihydroisoquinolin-1(2H)-one] | 101 to 1000 nM
CN(C)Cc1cc(-c2nc(-c3ccc4c(=O)[nH]cc(F)c4c3)c(N)nc2F)c(F)cc1N1CCOCC1 [Example I-259, 6-(3-amino-6-(5-((dimethylamino)methyl)-2-fluoro-4-morpholinophenyl)-5-fluoropyrazin-2-yl)-4-fluoroisoquinolin-1(2H)-one] | 11 to 100 nM
COC1CCN(Cc2cc(-c3nc(-c4cc5c(cc4F)C(=O)NCC5)c(N)nc3F)ccc2N2CCSCC2)CC1 [Example I-127, 6-(3-amino-5-fluoro-6-(3-((4-methoxypiperidin-1-yl)methyl)-4-thiomorpholinophenyl)pyrazin-2-yl)-7-fluoro-3,4-dihydroisoquinolin-1(2H)-one] | 11 to 100 nM
Cc1cc2cc(-c3nc(-c4ccc(N5CCN(C(C)C)CC5)cc4)c(F)nc3N)c(F)cc2c(=O)[nH]1 [Example I-182, 6-(3-amino-5-fluoro-6-(4-(4-isopropylpiperazin-1-yl)phenyl)pyrazin-2-yl)-7-fluoro-3-methylisoquinolin-1(2H)-one] | 0.1 to 10 nM
C[C@@H]1CN(C)CCN1c1ccc(-c2nc(-c3ccc4c(c3)CCNC4=O)c(N)nc2F)cc1 [Example I-52, (R)-6-(3-amino-6-(4-(2,4-dimethylpiperazin-1-yl)phenyl)-5-fluoropyrazin-2-yl)-3,4-dihydroisoquinolin-1(2H)-one] | 0.1 to 10 nM
CC(C)(N)c1cc(-c2nc(-c3ccc4c(c3)CCNC4=O)c(N)nc2F)ccc1F [Example I-271, 6-(3-amino-6-(3-(2-aminopropan-2-yl)-4-fluorophenyl)-5-fluoropyrazin-2-yl)-3,4-dihydroisoquinolin-1(2H)-one] | 101 to 1000 nM
Cc1nc2cc(-c3nc(-c4ccc([C@]56C[C@H]5CN(C)C6)cc4)c(F)nc3N)ccc2c(=O)[nH]1 [Example I-74, 7-(3-amino-5-fluoro-6-(4-((1S,5R)-3-methyl-3-azabicyclo[3.1.0]hexan-1-yl)phenyl)pyrazin-2-yl)-2-methylquinazolin-4(3H)-one] | 11 to 100 nM
C[C@@H]1CN(c2ccc(-c3nc(-c4cc(F)c5c(c4)CCNC5=O)c(N)nc3F)cc2CN(C)C)CCO1 [Example I-177, (R)-6-(3-amino-6-(3-((dimethylamino)methyl)-4-(2-methylmorpholino)phenyl)-5-fluoropyrazin-2-yl)-8-fluoro-3,4-dihydroisoquinolin-1(2H)-one] | 0.1 to 10 nM

— patent US20240425479A1, “HALO-SUBSTITUTED AMINO AZA-HETEROARYL COMPOUNDS AS INHIBITORS OF THE HAEMATOPOIETIC PROGENITOR KINASE 1 (HPK1)” (priority 2021, published 2024)
